Like-named read-outs stand apart in the source and are kept apart here.
Columns and labels:
mu-opioid receptor [1] = target: T1, mu-opioid receptor (Rattus norvegicus, UniProt P33535); format: binding
T1 construct: expressed in transfected cells; host or cells: HEK293 cells, transient transfection

mu-opioid receptor [2] = target: T1, mu-opioid receptor; format: cell-based

T1 sequence (P33535 whole entry): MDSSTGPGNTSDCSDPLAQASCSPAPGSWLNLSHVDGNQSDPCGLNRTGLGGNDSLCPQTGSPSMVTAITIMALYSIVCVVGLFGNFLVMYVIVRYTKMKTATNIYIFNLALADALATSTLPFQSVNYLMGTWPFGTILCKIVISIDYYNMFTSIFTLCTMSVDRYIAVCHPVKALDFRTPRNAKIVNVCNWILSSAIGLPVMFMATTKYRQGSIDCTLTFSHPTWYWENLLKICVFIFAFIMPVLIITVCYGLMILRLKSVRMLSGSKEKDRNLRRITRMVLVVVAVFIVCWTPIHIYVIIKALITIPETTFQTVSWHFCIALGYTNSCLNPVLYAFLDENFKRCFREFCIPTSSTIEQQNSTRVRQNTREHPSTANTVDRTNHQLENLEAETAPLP

## C[C@@H](NC(=O)[C@@H](N)Cc1ccc(O)cc1)C(=O)NCC(=O)N(C)[C@@H](Cc1ccccc1)C(=O)NCCO [DAMGO, (D-Ala^2, N-MePhe^4, Gly^5-ol)-enkephalin]
mu-opioid receptor [1]
  Affinity and number of binding sites, pH dependence: slightly (nonsignificantly) lower at pH 5.5 compared to pH 7.5
mu-opioid receptor [1]; pH 5.5
  ^3H-DAMGO Bmax: 14.04 fmol/mg
mu-opioid receptor [1]; pH 6.5
  ^3H-DAMGO Bmax: 15.50 fmol/mg
mu-opioid receptor [1]; pH 7.5
  ^3H-DAMGO Bmax: 23.95 fmol/mg
mu-opioid receptor [2]; pH 5
  cAMP (% baseline): 43 ± 6 % baseline
mu-opioid receptor [2]; pH 6.5
  cAMP (% baseline): 68 ± 9 % baseline
mu-opioid receptor [2]; pH 7.5
  Suppression of FSK/IBMX-stimulated cAMP, pH dependence: markedly stronger at pH 5.0 than at pH 7.5
  cAMP (% baseline): 82 ± 7 % baseline

— US20140364449A1 (priority 2012, published 2014)
